Results reported in patent US8440180B2, “Anti-cancer composition comprising aquatic microbial extract” (Ajou University Industry-Academic Cooperation Foundation, priority 2007, dated 2013).

Experiments:
Type in all cases: cell-based, human
[1] = system: MMP-9; test: MMP activity test using zymogram; conditions: 10 ng HGF-treated group compared to the control
Protocol: Proteins were quantitified from each of the supernatants, 30 μg of each supernatant was taken, and 15 μl APMA was added to each of the supernatants and activated at 37° C. for 1 hour. The activated test samples were added, and treated with MightySlim™ SX 250 (Hoefer, Calif., USA) for 2 4 hours and 48 hours. Then, the resulting test samples were ground to obtain cytoplasm samples. 10 μl of the cytoplasm samples were taken from these cytoplasm samples and added to sample buffers, respectively, and kept for 10 minutes. Then, the cytoplasm samples were added to previously-prepared gels, and then reacted at 4° C. and 125V for 120 minutes using Novex XCell II. The resulting cytoplasm samples were kept in a renaturing buffer at a room temperature for 60 minutes, and, after a developing buffer was replaced by 100 ml of fresh developing buffer, the cytoplasm samples were kept in the fresh developing buffer for 18 hours at 37° C. while stirring. Then, the cytoplasm samples were stained with Coomassie blue for 3 hours, washed with water, and observed at intervals of 10 minutes. In this case, a the gels were destained with a destaining solution (Methanol 400 ml, Acetic acid 100 ml, Distilled water 500 ml), and photographs of the gels were then taken using an image analyzer.

[2] = system: FaDu cells; test: Proliferative assay of tumor cell; conditions: fifth day after the treatment, compared to the DMSO control
Protocol: In order to evaluate effects of selected aquatic microbial extracts having an anti-cancer effect, FaDu cells (1×10^5/well) treated with 0, 10 and 30 ng/ml of HGF were treated with an aquatic Bacillus sp. strain extract (concentration: 1, 10 and 100 μM), and then incubated for 5 days. Then, 1, 3 and 5-day growth of the FaDu cells were determined by measuring the cell number of the FaDu cells using a haemocytometer. In this case, a medium was replaced by fresh medium. This experiment was repeated five times to statistically analyze the cell number difference according to the amounts of HGF and the extract.

[3] = system: MMP-2; test: Expression level test of MMP using RT-PCR; conditions: for expression level of the MMP-2: 24 and 48 hours
Protocol: 1 ml of a cancer cell line was homogenated in a TRIzol (GIBCOBRL, Grand Island, N.Y., USA) reagent, and the total RNA was extracted from the cancer cell line. 2 μg of the total RNA extracted from the hypopharyngeal cancer cell line was put into reaction mixtures of an Omniscript Reverse Transcriptase kit (20511, Qiagen Germany) (including 2.0 μl of 10× Buffer RT, 2.0 μl of dNTP Mix (5 mM each dNTP), 2.0 μl of Oligo-dT primer (10 μM), 1.0 μl of a RNase inhibitor (10 units/μl), 2 units of Omniscript Reverse Transcriptase and 20 μl of RNase-free water), and reverse transcribed at 37° C. for 60 minutes and at 94° C. for 5 minutes to synthesize cDNA. PCR was carried out using Minicycler™ (MJ research, USA), and the synthesized cDNA was added together with 1 unit of Taq DNA polymerase (Roche Diagnostics Co, Indianapolis, USA) and each primer, and then amplified.
DNA sequences of MMP-2 primer and MMP-9 primer used in this experiment were listed as follows.
A PCR procedure was carried out in one initial denaturation cycle at 96° C. for 3 minutes, 30 amplification cycles at 96° C. for 30 seconds, at 55° C. for 30 seconds and at 72° C. for 30 seconds, and one extension cycle at 72° C. for 5 minutes.

Substance: HGF: hepatocyte growth factor used to stimulate cancer cells
- expression of the MMP-9 (MMP activity evaluation) [1]: slightly increased
- cell proliferation on stimulation with hepatocyte growth factor [2]: statistically significant cell proliferation
- expression level of the MMP-2 ([3]; 10 ng/ml HGF, vs control): not significantly different
- expression level of the MMP-2 ([3]; 30 ng/ml HGF): increased
- expression level between the control and the HGF-treated groups when MMP-2 was treated with the HGF ([3]; second statement, printed MMP-2): no distinct difference
